Measurements reported in US10961189B2, “Spiro-lactam NMDA receptor modulators and uses thereof” (Aptinyx Inc., priority 2016, dated 2021).
Where two headings read alike, the source gives them in different places.

Tests used:
rats = assay: positive emotional learning (PEL) test, 50-kHz ultrasonic vocalizations; format: in vivo, rat; conditions: PO, dose .1 mg/kg, one hour after administration
Experimental: Experiments were conducted as described in Burgdorf et al., “The effect of selective breeding for differential rates of 50-kHz ultrasonic vocalizations on emotional behavior in rats,” Devel. Psychobiol., 51:34-46 (2009). Rat 50-kHz ultrasonic vocalization (hedonic USVs) is a validated model for the study of positive affective state and is best elicited by rough-and-tumble play.
The PEL assay measures the acquisition of positive (hedonic) 50-kHz ultrasonic vocalizations (USVs) to a social stimulus, heterospecific rough and tumble play stimulation. Heterospecific rough-and-tumble play stimulation was administered by the experimenter's right hand. One hour after administration of test compound or vehicle negative control (0.5% sodium carboxymethyl cellulose in […] sterile saline), animals received 3 min of heterospecific rough-and-tumble play that consisted of alternating 15 sec blocks of heterospecific play and 15 sec of no-stimulation. High frequency ultrasonic vocalizations (USVs) were recorded and analyzed by sonogram with Avasoft SASlab Pro (Germany) as previously described by Burgdorf et al., “Positive emotional learning is regulated in the medial prefrontal cortex by GluN2B-containing NMDA receptors,” Neuroscience, 192:515-523 (2011). Frequency modulated 50-kHz USVs that occurred during each of the no-stimulation periods were quantified to measure PEL. Animals were not habituated to play stimulation before testing. Positive emotional learning was measured during the conditioned stimulus (CS) trials preceding the tickle unconditioned stimulus (UCS) trials. Animals received 15 second trials consisting of 6 CS and 6 UCS trials each (3 min total).
The table below summarizes the findings. As each experiment includes its own vehicle group, an example (typical) vehicle score is shown. Max effect (mean number of 50 kHz USVs per 15 seconds) is reported as ^: <6.0; *: 6-10.9; **: 11-16.9; ***: 17-22.

NMDAR2B = target: T1, NMDAR2B (Homo sapiens, UniProt Q13224); assay: [3H]MK-801 binding in NMDAR expressing HEK cell membranes (facilitation of NMDAR activation); format: biochemical; conditions: 50 μM glutamate; for EC50: read-out: B: log EC50 (converted); for Emax: 0.25 h, read-out: A: % maximal [3H]MK-801 binding relative to 1 mM glycine
T1 construct: expressed in transfected cells; host or cells: HEK cells (membrane extract)
Experimental: (§1) Assays were conducted as described by Moskal et al., “GLYX-13: a monoclonal antibody-derived peptide that acts as an N-methyl-D-aspartate receptor modulator,” Neuropharmacology, 49, 1077-87, 2005. These studies were designed to determine if the test compounds act to facilitate NMDAR activation in NMDAR2A, NMDAR2B, NMDAR2C or NMDAR2D expressing HEK cell membranes as measured by increases in [^3H]MK-801 binding.
(§2) In the assay, 300 μg of NMDAR expressing HEK cell membrane extract protein was preincubated for 15 minutes at 25° C. in the presence of saturating concentrations of glutamate (50 μM) and varying concentrations of test compound (1×10^15M−1×10^−7M), or 1 mM glycine. Following the addition of 0.3 μCi of [^3H]MK-801 (22.5 Ci/mmol), reactions were again incubated for 15 minutes at 25° C. (nonequilibrium conditions). Bound and free [^3H]MK-801 were separated via rapid filtration using a Brandel apparatus.
(§3) In analyzing the data, the DPM (disintegrations per minute) of [^3H]MK-801 remaining on the filter were measured for each concentration of test compound or for 1 mM glycine. The DPM values for each concentration of a ligand (N=2) were averaged. The baseline value was determined from the best fit curve of the DPM values modeled using the GraphPad program and the log(agonist) vs. response (three parameters) algorithm was then subtracted from all points in the dataset. The % maximal [^3H]MK-801 binding was then calculated relative to that of 1 mM glycine: all baseline subtracted DPM values were divided by the average value for 1 mM glycine. The EC50 and % maximal activity were then obtained from the best fit curve of the % maximal [^3H]MK-801 binding data modelled using the GraphPad program and the log(agonist) vs. response (three parameters) algorithm.
(§4) The tables below summarize the results for the wild type NMDAR agonists NMDAR2A, NMDAR2B, NMDAR2C, and NMDAR2D, and whether the compound is not an agonist (−), is an agonist (+), or is a strong agonist (++), where column A is based on the % maximal [^3H]MK-801 binding relative to 1 mM glycine (−=0; <100%=+; and >100%=++); and column B is based on log EC50 values (0=−; ≥1×10^−9 M (e.g., −8)=+; and <1×10^−9 M (e.g., −10)=++).

NMDAR2A = target: T2, NMDAR2A (Homo sapiens, UniProt Q12879); assay: as above; format: biochemical; conditions: 50 μM glutamate; for EC50: read-out: B: log EC50 (converted); for Emax: 0.25 h, read-out: A: % maximal [3H]MK-801 binding relative to 1 mM glycine
T2 construct: expressed in transfected cells; host or cells: HEK cells (membrane extract)
Experimental: as §1, §2, §3, §4

[1] = oral pharmacokinetics (plasma, brain, CSF); format: in vivo, Sprague Dawley rats; conditions: rat, per os 10 mg/kg; for Tmax: normal saline (* in 5% NMP, 5% Solutol HS, 90% normal saline)
Experimental: In another experiment, Sprague Dawley rats were dosed per os using a normal saline formulation containing 10 mg/kg of the compounds identified in the table below (except for the compounds marked with an asterisk (“*”) that were delivered in 5% NMP, 5% Solutol® HS and 90% normal saline formulation). Plasma, brain, and CSF samples were analyzed at various time points over a 24 hour period.

IV pharmacokinetics = format: in vivo, Sprague Dawley rats; conditions: rat, normal saline (* in 5% NMP, 5% Solutol HS, 90% normal saline); for AUC(0-t) / half-life / C0 / Vd: Sprague-Dawley, in vivo, iv; for C0: read-out: C0; for Vd: read-out: Vss; for CI: intravenous 2 mg/kg
From the text: The table below summarizes the results of the IV pharmacokinetics.

Sprague Dawley rats [2] = assay: Porsolt forced swim test; format: in vivo, rat; conditions: 0.1 mg/kg
Experimental: A non-clinical in vivo pharmacology study (Porsolt assay) was performed to measure antidepressant-like effects. A negative control (0.5% sodium carboxymethyl cellulose in 0.9% sterile saline vehicle) and a positive control (fluoxetine) are shown for comparison against test compound. The study allowed for the evaluation of the effects of each compound on the Porsolt forced swim test as assessed by the rats' response (reduced floating time) during a 5-minute swimming test.
(§5) Male 2-3 month old Sprague Dawley rats were used (Harlan, Indianapolis, Ind.). Rats were housed in Lucite cages with aspen wood chip bedding, maintained on a 12:12 light:dark cycle (lights on at 5 AM), and given ad libitum access to Purina lab chow (USA) and tap water throughout the study.
The Porsolt forced swim test adapted for use in rats was performed as described by Burgdorf et al., (The long-lasting antidepressant effects of rapastinel (GLYX-13) are associated with a metaplasticity process in the medial prefrontal cortex and hippocampus. Neuroscience 308:202-211, 2015). Animals were placed in a 46 cm tall×20 cm in diameter clear glass tube filled to 30 cm with tap water (23±1° C.) for 15 min on the first day (habituation) and 5 min on the subsequent test day. Positive control fluoxetine was dosed 3 times (24 h, 5 h and 1 h) prior to testing. Animals were tested 1 h or 24 h post-dosing with the test compounds or vehicle. Animals received a 15 min habituation session 1 day before the 5 min test. A subset of compounds tested at 1 h post-dosing were retested at 1 wk post-dosing in the same sets of animals. Water was changed after every other animal. Animals were videotaped, and floating time as defined as the minimal amount of effort required to keep the animals head above water was scored offline by a blinded experimenter with high inter-rater reliability (Pearson's r>0.9).
Each compound tested at dose level shown. Significance vs. vehicle group for each experiment is marked. […] A compound marked “No” was not statistically significant from vehicle. Data was averaged for test compound and vehicle groups (N approximately 8 per group) and the percent reduction in floating for group treated with test compound relative to group treated with vehicle is shown.

Sprague Dawley rats [3] = assay: Bennett model of mechanical analgesia (sciatic nerve chronic constriction, paw withdrawal threshold); format: in vivo, rat; conditions: 10 mg/kg PO;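 also: log paw withdrawal threshold scaled from vehicle group mean (0%) to naive 15 g value (100%)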
Experimental: The Bennett model of mechanical analgesia is used to assess the analgesic effects of compounds as measured by paw withdrawal threshold. Bennett GJ, Xie YK, “A peripheral mononeuropathy in rat that produces disorders of pain sensation like those seen in man,” Pain 33:87-107, 1988. […] Vehicle animals receive the surgery and then receive vehicle rather than test compound. Animals were tested 1 hr, 24 h and 1 wk post-test compound or vehicle administration.
as §5, with “used. Harlan was the supplier for all studies.” for “used (Harlan, Indianapolis, Ind.).”
Rats were anesthetized using inhaled isoflurane (2.5%). Sciatic nerve chronic constriction nerve injury surgery was performed as previously described (Bennett and Xie, 1988). An incision (˜1.5 cm in length) was made with a scalpel blade dorsally through skin on the right hind limb, parallel and posterior to femur. Using a small pointed hemostat, the biceps femoris and gluteus superficialis muscles were separated. Using curved blunt forceps, the common sciatic nerve was isolated and exposed. For the mechanical analgesia studies, the whole sciatic nerve was ligated. Using hemostats/forceps and chromic gut (5-0), the nerve was loosely ligated with a square knot; 3 ligatures, 1 mm apart were placed on the nerve. […] Testing occurred approximately 2 weeks post-surgery.
During testing, rats were acclimated to the surface of a suspended wire mesh grid (1 cm×1 cm, with the wire being 0.3 cm in diameter) for 15-20 min. Starting from the smallest, each Von Frey filament was pressed perpendicularly to the plantar surface of the affected (ipsilateral) hind paw until slightly bent and then held for 6 second. If an obvious hind paw withdrawal or a flinching behavior immediately after the withdrawal of the filament was not observed, the next larger filament was used in the same manner. In case of a response, a lower filament was used. This was repeated until six responses were collected.
For all studies, animals were baselined prior to study start to test for allodynia (defined as a paw withdrawal threshold under 5). A subset of animals was tested with gabapentin (150 mg/kg, PO) to ensure at least 50% analgesia. Once it was confirmed animals were ready for study initiation, animals were balanced across groups. All study investigators were blind to treatment conditions. Animals were dosed with 0.1, 1 or 10 mg/kg of test compound via oral gavage (PO), control sets of animals were dosed with gabapentin (150 mg/kg, PO) or vehicle (0.5% Na-CMC in 0.9% sterile saline, PO). Testing occurred 1 h post-dosing with animals retested 24 hrs and 1 week post-dosing. The percent analgesia calculations for each animal were made using the following equation: % analgesia=[(log(x)−y)/((log (z)−y)]*100, where x=the paw withdrawal threshold for the drug-treated animal in grams, y=the average of the log(x) values for the vehicle treated group, and z=the paw withdrawal threshold for naïve animals in grams (historical value of 15 used).
The results are shown in the table below where the percentage of analgesia is measured at 1 hour, 24 hours, and 1 week after compound administration. Since each study had its own gabapentin control group, an example gabapentin control value is shown.

[4] = Sprague-Dawley, plasma, po, 10 mg/kg
[5] = Sprague-Dawley, plasma, po, 10 mg/kg, read-out: Tmax
[6] = Sprague-Dawley, plasma, po, 10 mg/kg, plasma, read-out: Cmax

T2 sequence (Q12879 23-1464, species assumed, other chains not shown): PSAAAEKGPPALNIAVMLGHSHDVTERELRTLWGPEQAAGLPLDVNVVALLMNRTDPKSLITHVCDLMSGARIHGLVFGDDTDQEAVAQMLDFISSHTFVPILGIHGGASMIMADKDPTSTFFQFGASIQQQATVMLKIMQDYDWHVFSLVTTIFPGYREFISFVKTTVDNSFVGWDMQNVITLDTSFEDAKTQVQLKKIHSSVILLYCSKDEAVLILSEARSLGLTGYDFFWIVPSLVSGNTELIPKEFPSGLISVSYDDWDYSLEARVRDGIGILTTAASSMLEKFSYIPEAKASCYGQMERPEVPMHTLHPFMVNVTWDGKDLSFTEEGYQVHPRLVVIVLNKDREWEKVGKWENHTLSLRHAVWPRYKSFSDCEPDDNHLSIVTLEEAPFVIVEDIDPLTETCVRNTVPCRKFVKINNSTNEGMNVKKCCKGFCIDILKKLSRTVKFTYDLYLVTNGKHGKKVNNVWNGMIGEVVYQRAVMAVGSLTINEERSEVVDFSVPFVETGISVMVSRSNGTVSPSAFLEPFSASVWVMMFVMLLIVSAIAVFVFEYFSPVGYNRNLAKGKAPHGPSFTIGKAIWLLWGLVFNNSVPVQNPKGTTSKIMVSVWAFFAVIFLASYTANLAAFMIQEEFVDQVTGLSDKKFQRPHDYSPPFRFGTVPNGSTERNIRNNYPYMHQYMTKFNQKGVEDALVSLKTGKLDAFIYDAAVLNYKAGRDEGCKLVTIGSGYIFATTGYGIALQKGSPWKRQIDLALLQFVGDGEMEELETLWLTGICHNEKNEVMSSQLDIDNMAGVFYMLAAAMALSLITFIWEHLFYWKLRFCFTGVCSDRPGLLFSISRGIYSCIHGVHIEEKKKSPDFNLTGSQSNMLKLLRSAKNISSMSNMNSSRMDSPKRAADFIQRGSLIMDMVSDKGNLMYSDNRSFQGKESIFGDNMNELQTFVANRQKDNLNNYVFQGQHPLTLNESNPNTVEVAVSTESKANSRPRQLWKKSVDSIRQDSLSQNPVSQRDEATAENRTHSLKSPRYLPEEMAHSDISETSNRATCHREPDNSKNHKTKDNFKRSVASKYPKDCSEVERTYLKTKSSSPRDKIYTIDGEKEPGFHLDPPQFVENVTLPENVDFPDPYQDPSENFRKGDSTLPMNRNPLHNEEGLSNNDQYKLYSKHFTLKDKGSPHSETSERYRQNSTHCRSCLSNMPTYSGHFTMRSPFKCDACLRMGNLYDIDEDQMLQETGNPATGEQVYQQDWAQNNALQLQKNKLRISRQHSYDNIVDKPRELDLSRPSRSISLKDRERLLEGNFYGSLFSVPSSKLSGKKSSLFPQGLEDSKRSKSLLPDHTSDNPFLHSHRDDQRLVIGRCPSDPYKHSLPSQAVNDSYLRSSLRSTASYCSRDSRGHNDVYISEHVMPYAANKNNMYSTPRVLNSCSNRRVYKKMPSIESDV
T1 sequence (Q13224 27-1484, species assumed, other chains not shown): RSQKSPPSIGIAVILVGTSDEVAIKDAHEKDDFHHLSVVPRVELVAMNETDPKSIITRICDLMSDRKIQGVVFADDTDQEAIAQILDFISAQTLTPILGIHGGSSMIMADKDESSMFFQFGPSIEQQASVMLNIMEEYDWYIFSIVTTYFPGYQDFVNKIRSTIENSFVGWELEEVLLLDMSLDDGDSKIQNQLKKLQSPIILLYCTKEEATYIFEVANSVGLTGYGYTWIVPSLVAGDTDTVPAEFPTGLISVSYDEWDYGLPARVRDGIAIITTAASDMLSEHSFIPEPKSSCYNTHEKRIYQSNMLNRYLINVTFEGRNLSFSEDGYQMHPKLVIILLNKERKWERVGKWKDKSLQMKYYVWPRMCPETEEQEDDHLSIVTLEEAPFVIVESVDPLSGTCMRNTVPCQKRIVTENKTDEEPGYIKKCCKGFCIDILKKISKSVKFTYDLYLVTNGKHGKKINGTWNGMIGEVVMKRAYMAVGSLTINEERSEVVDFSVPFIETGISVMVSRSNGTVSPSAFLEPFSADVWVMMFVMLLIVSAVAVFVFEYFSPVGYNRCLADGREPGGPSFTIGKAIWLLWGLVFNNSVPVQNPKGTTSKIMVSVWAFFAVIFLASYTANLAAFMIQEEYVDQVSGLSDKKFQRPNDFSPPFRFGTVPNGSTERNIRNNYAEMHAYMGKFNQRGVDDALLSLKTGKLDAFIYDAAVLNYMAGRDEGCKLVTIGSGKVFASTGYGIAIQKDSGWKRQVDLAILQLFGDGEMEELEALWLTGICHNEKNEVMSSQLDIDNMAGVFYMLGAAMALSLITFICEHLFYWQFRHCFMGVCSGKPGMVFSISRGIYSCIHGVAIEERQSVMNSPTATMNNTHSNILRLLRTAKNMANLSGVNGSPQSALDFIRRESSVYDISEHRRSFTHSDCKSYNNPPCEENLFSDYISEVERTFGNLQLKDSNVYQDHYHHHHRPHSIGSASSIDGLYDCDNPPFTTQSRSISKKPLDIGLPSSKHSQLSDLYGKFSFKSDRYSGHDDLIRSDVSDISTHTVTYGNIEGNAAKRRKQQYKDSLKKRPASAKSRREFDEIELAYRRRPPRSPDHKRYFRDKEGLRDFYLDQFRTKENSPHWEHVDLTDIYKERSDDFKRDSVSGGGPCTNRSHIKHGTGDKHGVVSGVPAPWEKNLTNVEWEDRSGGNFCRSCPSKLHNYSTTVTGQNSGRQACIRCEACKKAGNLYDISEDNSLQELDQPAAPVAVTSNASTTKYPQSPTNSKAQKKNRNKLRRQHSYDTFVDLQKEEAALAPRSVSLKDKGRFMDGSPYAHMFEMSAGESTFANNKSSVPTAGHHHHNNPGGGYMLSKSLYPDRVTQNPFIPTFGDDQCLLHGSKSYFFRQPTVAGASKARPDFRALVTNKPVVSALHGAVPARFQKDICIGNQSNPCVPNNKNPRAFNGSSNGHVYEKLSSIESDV

Structure (SMILES) | Max Effect (mean number of 50 kHz USVs per 15 seconds) (rats) | EC50 (NMDAR2B) [nM] | EC50 (NMDAR2A) [nM] | CSF Cmax [1] [ng/mL] | AUC(0-t) (IV pharmacokinetics; 2 mg/kg) [ng·h/mL] | half-life (IV pharmacokinetics; 2 mg/kg) [h] | C0 (IV pharmacokinetics; 2 mg/kg) [ng/mL] | Vd (IV pharmacokinetics; 2 mg/kg) [L/kg] | Emax (NMDAR2B) [%] | Emax (NMDAR2A) [%] | Tmax [1, 5] [h] | Cmax [1, 6] [ng/mL] | other results
C[C@@H](O)[C@H](NC1CCC2(CC1)CNC2=O)C(N)=O (single isomer, unassigned) [AQ] | ** (**: 11-16.9) | < 1 | ≥ 1 | 65.84 | 2290 | 3.84 | 3990 | 1.22 |  |  |  |  | A: % maximal [3H]MK-801 binding relative to 1 mM glycine (NMDAR2B): + (<100%=+); A: % maximal [3H]MK-801 binding relative to 1 mM glycine (NMDAR2A): + (<100%=+); % F [1]: 16%; Brain Cmax ([1]; brain): 29.91 ng/mL; Tmax [1]: 1 h; AUClast ([1]; plasma): 1805.63 ng·h/mL; Cmax ([1]; plasma): 499.27 ng/mL; CI (IV pharmacokinetics; 2 mg/kg): 14.64 mL/min/kg
O=C1NCC12CCCCC2 [Compound AB, 2-azaspiro[3.5]nonan-1-one] |  | < 1 | ≥ 1 |  | 2650 | 3.42 | 2050 | 1.13 | < 100 | < 100 | 0.42 | 7690 | % reduction in float time (Sprague Dawley rats [2]; 1 h post-dose): 73.2%; Significance vs. vehicle (Sprague Dawley rats [2]; 1 h post-dose): Yes (statistically significant (p<=0.05) from vehicle at dose level shown); % reduction in float time (Sprague Dawley rats [2]; 24 h post-dose): 79.90%; Significance vs. vehicle (Sprague Dawley rats [2]; 24 h post-dose): Yes (statistically significant (p<=0.05) from vehicle at dose level shown); AUC(0-t) [1, 4]: 11600 ng·h/mL; bioavailability [1, 4]: 88%; CI (IV pharmacokinetics): 16.1 mL/min/kg
C[C@@H](O)[C@@H](C(N)=O)N1CC2(CCC(F)(F)CC2)C1=O [Compound AO, (2S,3R)-2-(7,7-difluoro-1-oxo-2-azaspiro[3.5]nonan-2-yl)-3-hydroxybutanamide] | * (*: 6-10.9) | < 1 |  | 1676.3 |  |  |  |  | < 100 | 0 | 1 | 7310 | % analgesia (Sprague Dawley rats [3]; 1 wk): 18.2%; % analgesia (Sprague Dawley rats [3]; 1 h): 23.7%; % analgesia (Sprague Dawley rats [3]; 24 h): 7.5%
